The assay has as its system asymmetric di-methyl PABP1 in RKO cells. The assay can be described thus: RKO methylation assay, In Cell Western (ICW) for asymmetric di-methyl PABP1. The assay is classed as cell-based. The settings on record: Homo sapiens, RKO, Cellular potencies, ICW PABP1me2a. The text has this:
RKO adherent cells were purchased from ATCC (American Type Culture Collection), Manassas, Va., USA. DMEM/Glutamax medium, penicillin-streptomycin, heat inactivated fetal bovine serum, 0.05% trypsin and D-PBS were purchased from Life Technologies, Grand Island, N.Y., USA. Odyssey blocking buffer, 800 CW goat anti-rabbit IgG (H+L) antibody, and Licor Odyssey infrared scanner were purchased from Licor Biosciences, Lincoln, Nebr., USA. Asymmetric di-methyl PABP1 antibody was purchased from Cell Signaling Technology, Danvers, Mass., USA. Methanol was purchased from VWR, Franklin, Mass., USA. 10% Tween 20 was purchased from KPL, Inc., Gaithersburg, Md., USA. Paraformaldehyde (PFA) was purchased from EM Sciences. DRAQ5 was purchased from Biostatus Limited, Leicestershire, UK.
RKO adherent cells were maintained in growth medium (DMEM/Glutamax medium supplemented with 10% v/v heat inactivated fetal bovine serum and 100 units/mL penicillin-streptomycin) and cultured at 37° C. under 5% CO2.
Cell treatment, In Cell Western (ICW) for detection of asymmetric di-methyl PABP1 and DNA content: RKO cells were seeded in assay medium at a concentration of 30,000 cells per mL to a poly-D-lysine coated 384 well culture plate (BD Biosciences 356697) with 50 VL per well. Compound (100 nL) from a 96-well source plate was added directly to 384 well cell plate. Plates were incubated at 37° C., 5% CO2 for 48 hours. After two days of incubation, plates were brought to room temperature outside of the incubator for ten minutes and blotted on paper towels to remove cell media. Cells were fixed for 20 minutes at room temperature by adding 50 ul of 8% PFA followed by aspiration of supernatant with the Biotek EL406 plate washer. Cells were then permeabilized by addition of 50 μL of ice cold 100% methanol directly to each well and incubated for 30 min at room temperature. After 30 min, plates were transferred to a Biotek EL406 plate washer and washed 2 times with 100 μL per well of wash buffer (1×PBS). Next 60 μL per well of Odyssey blocking buffer (Odyssey Buffer with 0.1% Tween 20 (v/v)) were added to each plate and incubated 1 hour at room temperature. Blocking buffer was removed and 20 μL per well of primary antibody was added (asymmetric-methyl PABP1) diluted 1:400 in Odyssey buffer with 0.1% Tween 20 (v/v)) and plates were incubated overnight (16 hours) at 4° C. Plates were washed 5 times with 100 μL per well of wash buffer. Next 20 μL per well of secondary antibody was added (1:800 800 CW goat anti-rabbit IgG (H+L) antibody, 1:2000 DRAQ5 in Odyssey buffer with 0.1% Tween 20 (v/v)) and incubated for 1 hour at room temperature. The plates were washed 5 times with 100 μL per well wash buffer then 2 times with 100 μL per well of water. Plates were allowed to dry at room temperature then imaged on the Licor Odyssey machine which measures integrated intensity at 700 nm and 800 nm wavelengths. Both 700 and 800 channels were scanned.
First, the ratio for each well was determined by:
Each plate included fourteen control wells of DMSO only treatment (minimum inhibition) as well as fourteen control wells for maximum inhibition treated with 20 μM of a reference compound. The average of the ratio values for each control type was calculated and used to determine the percent […] for each test well in the plate. Reference compound was serially diluted three-fold in DMSO for a total of nine test concentrations, beginning at 20 μM.
Percent inhibition was determined and IC50 curves were generated using triplicate wells per concentration of compound. […]

Turning to `CNC[C@@H](O)COc1ccc(Cl)c(-c2nc(N[C@H]3CCN(C)C[C@H]3F)c(Cl)c(-c3c(C)noc3C)n2)c1` [Example 208-3], the IC50 (usually the point on the concentration scale where inhibition reaches its midpoint) is under 5 µM. In turn, `CNCC(O)COc1cccc(-c2nc(C(=O)NC3CCOCC3)c(C)c(C(=O)NC3CCOCC3)n2)c1` (stereo not drawn) [Example 677-1a] registered an IC50 of at least 20 µM. As to `CNCC(O)COc1cccc(-c2nc(NC3CCS(=O)(=O)CC3)c(C)c(-c3c(C)noc3C)n2)c1` (stereo not drawn) [Example 59-1a], the IC50 is 10 to 20 µM. Regarding `CNC[C@@H](O)COc1ccc(F)c(-c2nc(-c3c(C)noc3C)c(C)c(N3Cc4cncnc4C3)n2)c1` [Example 260-3], the IC50 is under 5 µM. `CNCC(O)COc1cccc(-c2nc(-c3c(C)noc3C)c(C)c(N3CCNC(C(F)F)C3)n2)c1` (stereo not drawn) [Example 47-3]: the IC50 fell in the range of 10 to 20 µM.

The molecule `CNCC(O)COc1cccc(-c2nc(-c3c(C)noc3C)c(C)c(N3CCO[C@@H](CN(C)C(=O)N(C)C)C3)n2)c1` (stereo partly drawn) [Example 176-1a] registered an IC50 of under 5 µM. The same measure for `CNC[C@@H](O)COc1ccc(F)c(-c2nc(-c3c(C)noc3C)cc(N3CC4(CCOCC4)C3)n2)c1` [Example 277-3]: under 5 µM; for `CNCC(O)COc1cccc(-c2nc(-c3c(C)noc3C)cc(-c3c(C)noc3C)n2)c1` (stereo not drawn) [Example 3-1a]: 10 to 20 µM. `C=C(C)c1cc(N(C)C2CCOCC2)nc(-c2cc(Cl)cc(OCC(O)CNC)c2)n1` (stereo not drawn) [Example 619-1a] yielded an IC50 of 10 to 20 µM. Molecule `CCOC(=O)N1CCC[C@@H]1COc1nc(-c2cc(OC[C@H](O)CNC)ccc2Cl)nc(-c2c(C)noc2C)c1C` [Example 133-3] had an IC50 of under 5 µM.

In turn, `CNCC(O)COc1cccc(-c2nc(NC)cc(-c3c(C)noc3C)n2)c1` (stereo not drawn) [Example 27-1a] displayed an IC50 of 10 to 20 µM.

In turn, `CCOC(=O)N1CCN(c2nc(-c3cccc(OCC(O)CNC)c3)nc(N[C@@H]3CCOC3)c2C)C[C@H]1C` (stereo partly drawn) [Example 470-1a] registered an IC50 of under 5 µM.

Take `CNCC(O)COc1cccc(-c2nc(-c3c(C)noc3C)cc(N3CCN(CCOC)CC3)n2)c1` (stereo not drawn) [Example 139-1a]: the IC50 is under 5 µM. Regarding `CCS(=O)(=O)N1CCCC(CNc2nc(-c3cccc(OCC(O)CNC)c3)nc(-c3c(C)noc3C)c2C)C1` (stereo not drawn) [Example 167-1a], the IC50 is under 5 µM. In the case of `CNCC(O)COc1cccc(-c2nc(N[C@@H]3CCOC3)cc(-c3c(C)noc3C)n2)c1` (stereo partly drawn) [Example 11-1a], the IC50 lay in the range of 5 to 10 µM. The molecule `CNC[C@@H](O)COc1ccc(Cl)c(-c2nc(N[C@H]3CCN(C4CC4)C[C@H]3F)c(C)c(-c3c(C)noc3C)n2)c1` [Example 44-3] had an IC50 of under 5 µM. Turning to `CNC[C@@H](O)COc1ccc(Cl)c(-c2nc(N[C@@H]3CCOC3)c(C)c(-c3c(C)noc3C)n2)c1` [Example 100-3], the IC50 was under 5 µM. The same measure for `CNCC(O)COc1cccc(-c2nc(-c3c(C)noc3C)cc(N3CCN(CC(F)(F)F)[C@@H](C)C3)n2)c1` (stereo partly drawn) [Example 104-1a]: under 5 µM; for `CNCC(O)COc1cccc(-c2nc(N[C@H]3C[C@H](O)C3)c(C)c(-c3c(C)noc3C)n2)c1` (stereo partly drawn) [Example 254-1a]: under 5 µM; for `CNCC(O)COc1cc(Cl)cc(-c2nc(N[C@@H]3CCOC3)cc(-c3c(C)noc3C)n2)c1` (stereo partly drawn) [Example 10-1a]: 10 to 20 µM.

Molecule `CNCC(O)COc1cccc(-c2nc(OCC3CCNCC3)c(C)c(-c3c(C)noc3C)n2)c1` (stereo not drawn) [Example 289-1a] yielded an IC50 of 5 to 10 µM. In the case of `CNC[C@@H](O)COc1ccc(Cl)c(-c2nc(-c3c(C)noc3C)c(C)c(N3CC4(CCN(C5CC5)C4)C3)n2)c1` [Example 176-3], the IC50 is under 5 µM.

In turn, `CCOC(=O)N1CC[C@@H](Nc2nc(-c3cc(OC[C@H](O)CNC)ccc3Cl)nc(-c3c(C)noc3C)c2C)C1` [Example 112-3] returned a half-maximal inhibitory concentration (IC50) of under 5 µM.

On to `CNCC(O)COc1cccc(-c2nc(-c3c(C)noc3C)c(C)c(N(C)[C@H]3C[C@@](C)(OC)C3)n2)c1` (stereo partly drawn) [Example 20-3], for which the IC50 is under 5 µM. The same measure for `CNCC(O)COc1cccc(-c2nc(NC3CCN(C4COC4)C3)c(C)c(-c3c(C)noc3C)n2)c1` (stereo not drawn) [Example 240-1a]: under 5 µM; for `CNCC(O)COc1cccc(-c2nc(N[C@@H]3CCOC3)c(C)c(N3CCC4(CCOCC4)C3)n2)c1` (stereo partly drawn) [Example 462-1a]: 10 to 20 µM. `CNC[C@@H](O)COc1ccc(Cl)c(-c2nc(-c3c(C)noc3C)c(C)c(N3CC4(CCN(CC(F)F)CC4)C3)n2)c1` [Example 283-3] gave an IC50 of under 5 µM. In turn, `CNCC(O)COc1cccc(-c2nc(-c3c(C)noc3C)cc(N3CCN(CC(F)(F)F)[C@H](C)C3)n2)c1` (stereo partly drawn) [Example 144-1a] came in with an IC50 of under 5 µM. Take `CNCC(O)COc1cccc(-c2nc(N[C@H]3C[C@@](C)(OC)C3)c(C)c(-c3c(C)noc3C)n2)c1` (stereo partly drawn) [Example 19-3]: the IC50 was under 5 µM. Turning to `CNCC(O)COc1cccc(-c2nc(-c3c(C)noc3C)cc(N3CCN(C(=O)N(C)C)[C@@H](C)C3)n2)c1` (stereo partly drawn) [Example 91-1a], the IC50 was under 5 µM. With `CNC[C@@H](O)COc1ccc(Cl)c(-c2nc(-c3c(C)noc3C)c(Cl)c(N3Cc4ccncc4C3)n2)c1` [Example 214-3], the IC50 is under 5 µM. For the molecule `CNCC(O)COc1cccc(-c2nc(NCC3CCN(C4COC4)CC3)c(C)c(-c3c(C)noc3C)n2)c1` (stereo not drawn) [Example 262-1a], the IC50 was under 5 µM. `CNC[C@@H](O)COc1cccc(-c2nc(NC3CCN(C(=O)OC)C(C)C3)c(C)c(-c3c(C)noc3C)n2)c1` (stereo partly drawn) [Example 32-3] displayed an IC50 of under 5 µM. `CNCC(O)COc1cccc(-c2nc(NC3CCN(C(=O)N(C)C)CC3)c(C)c(-c3c(C)noc3C)n2)c1` (stereo not drawn) [Example 244-1a] had an IC50 of under 5 µM.

With `CNCC(O)COc1cccc(-c2nc(N[C@@H]3CCOC3)c(C)c(N3CCC(S(C)(=O)=O)CC3)n2)c1` (stereo partly drawn) [Example 441-1a], the half-inhibitory concentration (IC50) was 5 to 10 µM. Take `CCS(=O)(=O)N1CCOC[C@@H]1CNc1nc(-c2cccc(OCC(O)CNC)c2)nc(-c2c(C)noc2C)c1C` (stereo partly drawn) [Example 230-1a]: the half-maximal inhibitory concentration (IC50) was under 5 µM. To `CNCC(O)COc1cccc(-c2nc(NC3CN(CC(F)F)C3)c(C)c(-c3c(C)noc3C)n2)c1` (stereo not drawn) [Example 237-1a] belongs 10 to 20 µM. Molecule `CNC[C@@H](O)COc1ccc(Cl)c(-c2nc(N[C@H]3CCN(C(=O)OC)[C@H](C)C3)c(C)c(-c3c(C)noc3C)n2)c1` [Example 102-3] came in with an IC50 of under 5 µM. Molecule `CNCC(O)COc1cc(NC)cc(-c2nc(NC3CCOCC3)c(C)c(-c3c(C)noc3C)n2)c1` (stereo not drawn) [Example 136-1a] displayed an IC50 of under 5 µM.

Molecule `CNCC(O)COc1cccc(-c2nc(-c3c(C)noc3C)c(C)c(N3CCN(C(=O)OCCF)CC3)n2)c1` (stereo not drawn) [Example 121-1a] returned an IC50 of under 5 µM.

Consider `CNCC(O)COc1cccc(-c2nc(-c3ncc(C)n3C)cc(N(C)C3CCOCC3)n2)c1` (stereo not drawn) [Example 491-1a], for which the IC50 is under 5 µM. Molecule `CNC[C@@H](O)COc1cccc(-c2nc(NC3CCN(C(=O)OC)CC3)cc(-c3c(C)nnn3C)n2)c1` [Example 278-3] showed an IC50 of 10 to 20 µM. To `CCN1CCC(Nc2nc(-c3cc(OC[C@H](O)CNC)ccc3Cl)nc(-c3c(C)noc3C)c2C)C(F)(F)C1` (stereo partly drawn) [Example 291-3] belongs under 5 µM. In turn, `CNCC(O)COc1cccc(-c2nc(NC3CCCN(C(=O)N(C)C)C3)c(C)c(-c3c(C)noc3C)n2)c1` (stereo not drawn) [Example 216-1a] displayed a half-maximal inhibitory concentration (IC50) of under 5 µM. For `CNC[C@@H](O)COc1ccc(C(F)(F)F)c(-c2nc(NC3CCN(C(=O)OC)CC3)c(C)c(-c3c(C)noc3C)n2)c1` [Example 204-3], the IC50 was under 5 µM. To `CNCC(O)COc1cccc(-c2nc(N[C@@H]3CCN(C4CC4)C[C@@H]3F)c(C)c(-c3c(C)noc3C)n2)c1` (stereo partly drawn) [Example 260-1a] belongs under 5 µM; to `CNC[C@@H](O)COc1ccc(F)c(-c2nc(-c3c(C)noc3C)c(C)c(N3Cc4cccc(F)c4C3)n2)c1` [Example 266-3], under 5 µM. Molecule `CNCC(O)COc1cccc(-c2nc(OCC3CCN(C(=O)N(C)C)CC3)c(C)c(-c3c(C)noc3C)n2)c1` (stereo not drawn) [Example 285-1a] showed an IC50 of under 5 µM.
